Source: patent US8895547B2, “Substituted phenyl-oxathiazine derivatives, method for producing them, drugs containing said compounds and the use thereof” (Sanofi, priority 2011, dated 2014)

Molecular target: T1, human 11β-HSD1 (Homo sapiens, UniProt P28845)
T1 construct: host or cells: microsome fraction
Assay: Enzymatic 11beta-HSD1 test (SPA-based detection)
Assay type: biochemical
Settings: human 11β-HSD1 microsome fraction, [1,2-3H]-cortisone, NADPH, 37° C. 1 hour
Protocol: Enzymatic 11beta-HSD1 test:
To measure the activity of the compounds, an SPA-based detection method (Solly et al. 2005) was employed. First of all, 20 μl of the human 11β-HSD1 microsome fraction (0.2 μg of protein), prepared in 50 mM HEPES, 0.1% BSA (w/v), were applied to a plate with 384 wells. The test compounds (0.09 μl) were applied to the assay plate in 100% DMSO. The reaction was started by addition of 20 μl of [1,2-^3H]-cortisone (0.1 μCi/[…]) in assay buffer comprising 25 mM HEPES, 100 mM KCl, 5 mM NaCl, 2 mM MgCl2 and 0.25 mM NADPH. The plate was agitated at 37° C. for 1 hour. At the same time, a stop solution comprising 20 mg/ml SPA-PVT beads, 1.6 mg/ml monoclonal cortisol antibody and 0.01 mM SSR110887 (inhibitor from the Biovitrium patent) in 50 mM HEPES, 1 M NaCl and 1 M KCl was stirred at room temperature. To stop the reaction, 25 μl of the stop solution were added to each well. The plate was agitated gently at room temperature for 1 further hour and then centrifuged at 500 gav for 1 minute, in order that the SPA beads could settle out. The plate was then read in a Wallac-1450-Microbeta unit with a standard SPA program (counting time 1 min/well). The comparative compound was glycyrrhetinic acid.
Protein and radioactive substrate were dispensed with a Biomek FX unit (Beckman Coulter) for handling liquids. The test compounds were added with a Cybi-Well equipped with a 90 nl pin tool (CyBio).
Lit.: Solly S, Mundt S S, Zokian H J, Juy-Fang Ding G, Hermanowski-Vosatka A, Strulovici B and Zheng W. High-throughput screening of 11β-Hydroxysteroid dehydrogenase type 1 in scintillation proximity format. Assay Drug Dev Technol 2005; 3:377-384.

T1 sequence (P28845 whole entry): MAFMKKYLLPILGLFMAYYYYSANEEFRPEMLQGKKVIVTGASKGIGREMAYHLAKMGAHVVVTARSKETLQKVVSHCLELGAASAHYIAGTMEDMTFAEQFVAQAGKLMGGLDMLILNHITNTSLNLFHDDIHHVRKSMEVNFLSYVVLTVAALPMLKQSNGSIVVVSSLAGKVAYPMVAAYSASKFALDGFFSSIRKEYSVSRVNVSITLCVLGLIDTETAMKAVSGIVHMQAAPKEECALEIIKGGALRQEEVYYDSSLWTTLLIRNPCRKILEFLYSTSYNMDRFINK

Row | SMILES | IC50 [nM]
1 | CC1(C)OC(N[C@@H](CCO)c2ccccc2)=NS(=O)(=O)C1(C)c1cccc(N2CCN(S(C)(=O)=O)CC2)c1 (stereo partly drawn) [Compound 34, (S)-3-{5-[3-(4-Methanesulfonylpiperazin-1-yl)-phenyl]-5,6,6-trimethyl-4,4-dioxo-5,6-dihydro-4H-4lambda6-[1,4,3]oxathiazin-2-ylamino}-3-phenylpropan-1-ol] | 17
2 | C[C@H](NC1=NS(=O)(=O)C(c2cccc(C(=O)N3CCCN(C)CC3)c2)C(C)(C)O1)c1ccccc1F (stereo partly drawn) [Example 193, (3-{2-[(S)-1-(2-fluorophenyl)-ethylamino]-6,6-dimethyl-4,4-dioxo-5,6-dihydro-4H-4lambda6-[1,4,3]oxathiazin-5-yl}-phenyl)-(4-methyl-[1,4]diazepan-1-yl)-methanone] | 476
3 | C[C@H](NC1=NS(=O)(=O)C(C)(c2cccc(N3CCN(S(C)(=O)=O)CC3)c2)C(C)(C)O1)c1ccccc1F (stereo partly drawn) [Compound 35, [(S)-1-(2-Fluorophenyl)ethyl]-{5-[3-(4-methanesulfonylpiperazin-1-yl)-phenyl]-5,6,6-trimethyl-4,4-dioxo-5,6-dihydro-4H-4lambda6-[1,4,3]oxathiazin-2-yl}amine] | 15
4 | CC1(C)OC(N[C@@H](CCO)c2ccc(F)cc2F)=NS(=O)(=O)C1c1ccc(-c2ccccc2)cc1 (stereo partly drawn) [Example 97, (S)-3-(5-Biphenyl-4-yl-6,6-dimethyl-4,4-dioxo-5,6-dihydro-4H-4lambda6-[1,4,3]oxathiazin-2-ylamino)-3-(2,4-difluorophenyl)-propan-1-ol] | 16
5 | C[C@H](NC1=NS(=O)(=O)C(c2ccc(-c3ccccc3)nc2)C(C)(C)O1)c1ccccc1F (stereo partly drawn) [Example 164, [6,6-Dimethyl-4,4-dioxo-5-(6-phenyl-pyridin-3-yl)-5,6-dihydro-4H-4lambda6-[1,4,3]oxathiazin-2-yl]-[(S)-1-(2-fluorophenyl)-ethyl]-amine] | 27
6 | C[C@H](NC1=NS(=O)(=O)C(C)(c2ccccc2)C(C)(C)O1)c1ccccc1F (stereo partly drawn) [Compound 56, [(S)-1-(2-Fluorophenyl)ethyl]-(5,6,6-trimethyl-4,4-dioxo-5-phenyl-5,6-dihydro-4H-4lambda6-[1,4,3]oxathiazin-2-yl)amine, stereomer 1] | 8
7 | CC1(C)OC(N[C@@H](CCO)c2ccccc2)=NS(=O)(=O)C1(C)c1cccc(N2CCCC2)c1 (stereo partly drawn) [Compound 39, (S)-3-Phenyl-3-[5,6,6-trimethyl-4,4-dioxo-5-(3-pyrrolidin-1-ylphenyl)-5,6-dihydro-4H-4lambda6-[1,4,3]oxathiazin-2-ylamino]propan-1-ol] | 24
8 | Cc1cccc(C2C(C)(C)OC(N[C@@H](CCO)c3ccccc3)=NS2(=O)=O)c1 (stereo partly drawn) [Example 9, (S)-3-(6,6-Dimethyl-4,4-dioxo-5-m-tolyl-5,6-dihydro-4H-4lambda6-[1,4,3]oxathiazin-2-ylamino)-3-phenyl-propan-1-ol] | 22
9 | CC1(C)OC(N[C@@H](CCO)c2ccccc2F)=NS(=O)(=O)C1c1ccc(-c2ccc(C#N)cc2)cc1 (stereo partly shown) [Example 95] | 6
10 | CN(CCO)CCCc1ccc(C2C(C)(C)OC(N[C@@H](CCO)c3ccccc3F)=NS2(=O)=O)cc1 (stereo partly shown) [Example 122] | 35
11 | CC1(C)OC(N[C@@H](CCO)c2ccccc2F)=NS(=O)(=O)C1c1ccc(C(F)(F)F)cc1 (stereo partly drawn) [Example 102, (S)-3-[6,6-Dimethyl-4,4-dioxo-5-(4-trifluormethyl-phenyl)-5,6-dihydro-4H-4lambda6-[1,4,3]oxathiazin-2-ylamino]-3-(2-fluorophenyl)-propan-1-ol] | 6
12 | CC1(C)OC(N[C@@H](CCO)c2ccccc2)=NS(=O)(=O)C1c1ccccc1 (single isomer, unassigned) [Example 28] | 16
13 | C[C@H](NC1=NS(=O)(=O)C(C)(c2cccc(-c3ccccc3)c2)C(C)(C)O1)c1ccccc1F (stereo partly drawn) [Example 73, (5-Biphenyl-3-yl-5,6,6-trimethyl-4,4-dioxo-5,6-dihydro-4H-4lambda6-[1,4,3]oxathiazin-2-yl)-[(S)-1-(2-fluorophenyl)-ethyl]-amine] | 28
